Data from paper PMC6253949, “The Inhibitory Action of Kohamaic Acid A Derivatives on Mammalian DNA Polymerase β” (Molecules, 2008).

Experiments:
mammalian pols = assay: DNA polymerase assays, all mammalian pols tested; type: biochemical; conditions: all mammalian pols tested (α, β, γ, δ, ε, η, ι, κ, λ); read-out: range of IC50 values for mammalian pols
Description: (§1) Pol α was purified from calf thymus by immuno-affinity column chromatography as described by Tamai et al.. Recombinant rat pol β was purified from E. coli JMpβ5 as described by Date et al.. The human pol γ catalytic gene was cloned into pFastBac. Histidine-tagged enzyme was expressed using the BAC-TO-BAC HT Baculovirus Expression System according to the supplier's manual (LIFE TECHNOLOGIES, MD, USA) and purified using ProBoundresin (Invitrogen Japan, Tokyo, Japan). Human pols δ and ε were purified by the nuclear fractionation of human peripheral blood cancer cells (Molt-4) using the second subunit of pols δ and ε-conjugated affinity column chromatography, respectively. Recombinant human pols η and ι tagged with His6 at their C-terminal were expressed in SF9 insect cells using the baculovirus expression system, and were purified as described previously. A truncated form of pol κ (i.e., hDINB1DC) with 6 x His-tags attached at the C-terminal was overproduced using the BAC-to-BAC Baculovirus Expression System kit (GIBCO BRL, MD, USA) and purified as described previously. […]
(§2) For pols, poly(dA)/oligo(dT)12-18 (A/T = 2/1) and dTTP were used as the DNA template-primer and nucleotide (i.e., dNTP) substrate, respectively. […] Activity without the inhibitor was considered 100%, and the remaining activity at each concentration of the inhibitor was determined relative to this value. […]

HL-60 cells = assay: HL-60 cancer cell growth, MTT assay; type: cell-based, human; conditions: 50 μM, 24 hr
Procedure: To investigate the effects of KA-A derivatives in cultured cells, we used a human cancer cell line, HL-60, human promyelocytic leukemia cells (IFO 050022), supplied by the Health Science Research Resources Bank (Osaka, Japan). The cells were routinely cultured in RPMI 1640 medium supplemented with 10% fetal bovine serum, 100 μg/mL streptomycin, 100 unit/mL penicillin, and 1.6 mg/mL NaHCO3. The cells were cultured at 37 °C in standard medium in a humidified atmosphere of 5% CO2-95% air. The rate of the cancer cell growth of the compound was investigated as follows: high concentrations (10 mM) of the compounds were dissolved in DMSO and stocked. Approximately 1 x 10^4 cells per well were inoculated in 96-well micro plates, and then the compound stock solution was diluted to various concentrations, and applied to each well. After incubation for 24 hr, the survival rate was determined by MTT (3-(4,5-dimethylthiazol-2-yl)-2,5-diphenyl tetrazolium bromide) assay.

[1] = target: Calf Primase of DNA polymerase α (Bos taurus, UniProt A0A3Q1MF00+A0JNF4); assay: Primase activity assay of calf pol α; type: biochemical
Sequence of Calf Primase of DNA polymerase α (A0AAA9THK8 entry or part of it): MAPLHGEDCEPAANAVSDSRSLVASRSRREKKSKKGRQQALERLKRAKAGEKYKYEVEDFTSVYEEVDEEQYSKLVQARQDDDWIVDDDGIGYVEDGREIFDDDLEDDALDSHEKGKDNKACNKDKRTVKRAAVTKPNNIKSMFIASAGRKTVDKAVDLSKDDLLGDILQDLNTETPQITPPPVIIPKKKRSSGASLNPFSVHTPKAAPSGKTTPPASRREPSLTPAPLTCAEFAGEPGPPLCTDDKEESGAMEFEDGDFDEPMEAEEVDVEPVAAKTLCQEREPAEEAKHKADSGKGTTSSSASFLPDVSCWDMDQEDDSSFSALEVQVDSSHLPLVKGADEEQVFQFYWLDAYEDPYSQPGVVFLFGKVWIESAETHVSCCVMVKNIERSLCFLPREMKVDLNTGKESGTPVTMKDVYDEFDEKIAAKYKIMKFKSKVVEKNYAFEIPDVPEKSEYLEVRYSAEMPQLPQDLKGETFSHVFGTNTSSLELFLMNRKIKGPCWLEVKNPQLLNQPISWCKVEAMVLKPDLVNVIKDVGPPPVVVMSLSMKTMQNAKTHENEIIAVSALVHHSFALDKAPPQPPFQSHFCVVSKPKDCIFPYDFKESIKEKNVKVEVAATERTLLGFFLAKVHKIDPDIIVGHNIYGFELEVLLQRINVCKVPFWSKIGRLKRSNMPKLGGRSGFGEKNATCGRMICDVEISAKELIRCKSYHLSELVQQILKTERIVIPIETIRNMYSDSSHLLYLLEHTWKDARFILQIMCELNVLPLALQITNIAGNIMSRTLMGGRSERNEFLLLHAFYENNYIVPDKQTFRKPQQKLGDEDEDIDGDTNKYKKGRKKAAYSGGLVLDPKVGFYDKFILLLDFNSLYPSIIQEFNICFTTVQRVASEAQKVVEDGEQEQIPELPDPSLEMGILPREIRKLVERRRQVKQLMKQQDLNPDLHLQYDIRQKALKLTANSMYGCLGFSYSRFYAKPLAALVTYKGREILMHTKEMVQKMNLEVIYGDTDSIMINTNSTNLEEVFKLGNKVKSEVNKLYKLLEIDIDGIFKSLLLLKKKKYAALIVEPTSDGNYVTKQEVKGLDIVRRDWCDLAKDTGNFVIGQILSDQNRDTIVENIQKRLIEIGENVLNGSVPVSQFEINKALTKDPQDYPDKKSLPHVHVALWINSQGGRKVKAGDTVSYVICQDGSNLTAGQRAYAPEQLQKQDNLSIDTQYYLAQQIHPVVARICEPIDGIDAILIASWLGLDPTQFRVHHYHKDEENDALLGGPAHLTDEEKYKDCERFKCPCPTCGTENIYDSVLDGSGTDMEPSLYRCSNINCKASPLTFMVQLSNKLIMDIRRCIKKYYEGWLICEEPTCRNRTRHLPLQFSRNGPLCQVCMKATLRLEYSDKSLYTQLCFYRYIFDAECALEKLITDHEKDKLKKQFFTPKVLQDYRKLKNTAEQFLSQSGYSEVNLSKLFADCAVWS
Sequence of Calf Primase of DNA polymerase α (A0JNF4 entry or part of it): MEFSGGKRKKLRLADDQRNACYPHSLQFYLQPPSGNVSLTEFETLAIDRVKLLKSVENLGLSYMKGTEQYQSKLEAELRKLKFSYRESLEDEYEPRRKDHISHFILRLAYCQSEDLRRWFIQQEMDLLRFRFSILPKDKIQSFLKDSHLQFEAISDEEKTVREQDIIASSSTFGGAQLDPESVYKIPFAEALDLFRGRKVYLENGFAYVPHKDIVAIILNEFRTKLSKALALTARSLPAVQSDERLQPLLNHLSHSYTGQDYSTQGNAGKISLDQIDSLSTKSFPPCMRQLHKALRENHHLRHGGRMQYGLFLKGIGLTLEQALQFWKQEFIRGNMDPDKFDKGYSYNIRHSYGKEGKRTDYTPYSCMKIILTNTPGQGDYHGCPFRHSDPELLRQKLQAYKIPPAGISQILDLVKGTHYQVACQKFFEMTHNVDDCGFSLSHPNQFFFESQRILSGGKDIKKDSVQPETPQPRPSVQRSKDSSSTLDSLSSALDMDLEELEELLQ
Sequence of Calf Primase of DNA polymerase α (Q58D13 whole entry, further chain): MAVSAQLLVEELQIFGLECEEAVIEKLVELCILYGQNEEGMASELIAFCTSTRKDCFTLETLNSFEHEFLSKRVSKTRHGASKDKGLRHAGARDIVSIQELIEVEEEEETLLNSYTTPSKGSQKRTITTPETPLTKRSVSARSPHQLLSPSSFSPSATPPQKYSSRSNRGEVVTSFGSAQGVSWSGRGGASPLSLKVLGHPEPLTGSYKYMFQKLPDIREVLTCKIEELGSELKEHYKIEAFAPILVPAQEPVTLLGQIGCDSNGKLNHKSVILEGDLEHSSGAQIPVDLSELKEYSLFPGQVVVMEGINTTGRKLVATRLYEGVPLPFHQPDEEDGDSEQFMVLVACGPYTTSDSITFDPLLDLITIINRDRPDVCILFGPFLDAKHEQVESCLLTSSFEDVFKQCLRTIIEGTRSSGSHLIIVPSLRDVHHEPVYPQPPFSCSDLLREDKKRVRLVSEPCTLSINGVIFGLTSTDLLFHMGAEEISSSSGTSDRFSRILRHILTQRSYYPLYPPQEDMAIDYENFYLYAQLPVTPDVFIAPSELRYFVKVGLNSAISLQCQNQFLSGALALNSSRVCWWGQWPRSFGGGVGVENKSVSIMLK
Sequence of Calf Primase of DNA polymerase α (A0A3Q1MF00 entry or part of it): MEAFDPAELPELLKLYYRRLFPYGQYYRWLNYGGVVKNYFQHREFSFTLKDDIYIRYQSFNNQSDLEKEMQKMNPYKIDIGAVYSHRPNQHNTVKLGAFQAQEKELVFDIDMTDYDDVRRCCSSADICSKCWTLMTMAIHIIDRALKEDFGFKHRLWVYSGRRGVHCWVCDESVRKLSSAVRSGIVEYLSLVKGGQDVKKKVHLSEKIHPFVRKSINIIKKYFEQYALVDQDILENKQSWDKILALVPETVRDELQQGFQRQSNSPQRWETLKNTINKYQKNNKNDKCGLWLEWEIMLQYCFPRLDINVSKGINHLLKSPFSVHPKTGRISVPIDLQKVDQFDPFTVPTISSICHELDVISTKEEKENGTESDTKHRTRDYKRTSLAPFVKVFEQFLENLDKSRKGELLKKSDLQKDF
Procedure: The primase activity of calf pol α, the activities of T7 RNA polymerase, T4 polynucleotide kinase and bovine DNase I were measured in standard assays according to the manufacturer's specifications as described by Tamiya-Koizumi et al., Nakayama et al., Soltis et al., and Lu and Sakaguchi, respectively.

Calf DNA polymerase α = Calf DNA polymerase α (Bos taurus, UniProt A0AAA9THK8); assay: DNA polymerase assay, calf pol α; type: biochemical
Sequence of Calf DNA polymerase α (Q58D13 whole entry): as the sequence (Q58D13 whole entry, further chain) above
Sequence of Calf DNA polymerase α (A0AAA9THK8 entry or part of it): as the sequence (A0AAA9THK8 entry or part of it) above
Sequence of Calf DNA polymerase α (A0JNF4 entry or part of it, further chain): as the sequence (A0JNF4 entry or part of it) above
Sequence of Calf DNA polymerase α (A0A3Q1MF00 entry or part of it, further chain): as the sequence (A0A3Q1MF00 entry or part of it) above
Description: Pol α was purified from calf thymus by immuno-affinity column chromatography as described by Tamai et al.. Recombinant rat pol β was purified from E. coli JMpβ5 as described by Date et al.. The human pol γ catalytic gene was cloned into pFastBac. Histidine-tagged enzyme was expressed using the BAC-TO-BAC HT Baculovirus Expression System according to the supplier's manual (LIFE TECHNOLOGIES, MD, USA) and purified using ProBoundresin (Invitrogen Japan, Tokyo, Japan). Human pols δ and ε were purified by the nuclear fractionation of human peripheral blood cancer cells (Molt-4) using the second subunit of pols δ and ε-conjugated affinity column chromatography, respectively. Recombinant human pols η and ι tagged with His6 at their C-terminal were expressed in SF9 insect cells using the baculovirus expression system, and were purified as described previously. A truncated form of pol κ (i.e., hDINB1DC) with 6 x His-tags attached at the C-terminal was overproduced using the BAC-to-BAC Baculovirus Expression System kit (GIBCO BRL, MD, USA) and purified as described previously. Recombinant human His-pol λ was overexpressed and purified according to a method described previously. Fish pol δ was purified from the testis of cherry salmon (Oncorhynchus masou). Pol I (α-like) from a higher plant, cauliflower inflorescence, was purified according to the methods outlined by Sakaguchi et al.. The Klenow fragment of pol I from E. coli was purchased from Worthington Biochemical Corp. (Freehold, NJ, USA). Taq pol, T4 pol, T7 RNA polymerase and T4 polynucleotide kinase were purchased from Takara (Kyoto, Japan). Bovine pancreas deoxyribonuclease I (DNase I) was obtained from Stratagene Cloning Systems (La Jolla, CA, USA).
The reaction mixtures for pol α, pol β, fish pol δ, plant pol I (α-like) and prokaryotic pols were described previously, and those for pol γ, and pols δ and ε were as described by Umeda et al. and Ogawa et al., respectively. The reaction mixtures for pols η, ι and κ were the same as for pol α, and the reaction mixture for pol λ was the same as that for pol β.
For pols, poly(dA)/oligo(dT)12-18 (A/T = 2/1) and dTTP were used as the DNA template-primer and nucleotide (i.e., dNTP) substrate, respectively. KA-A analogues (i.e., compounds 1–12) were dissolved in distilled dimethyl sulfoxide (DMSO) at various concentrations and sonicated for 30 sec. Aliquots of 4 μL of sonicated samples were mixed with 16 μL of each enzyme (final amount 0.05 units) in 50 mM Tris-HCl (pH 7.5) containing 1 mM dithiothreitol, 50% glycerol and 0.1 mM EDTA, and kept at 0 °C for 10 min. […] Activity without the inhibitor was considered 100%, and the remaining activity at each concentration of the inhibitor was determined relative to this value. […]

[2] = tested on: double-stranded DNA (dsDNA); assay: Thermal transition (Tm) of double-stranded DNA; type: binding; conditions: compound 11 at 200 μM; data not shown
Procedure: The Tm of dsDNA with an excess amount of compound 11 (200 μM) was measured using a spectrophotometer equipped with a thermoelectric cell holder.

Human DNA polymerase η = target: T1, Human DNA polymerase η (Homo sapiens, UniProt Q9Y253); assay: DNA polymerase assay, human pol η; type: biochemical
T1 construct: His6 (C); made in house; host or cells: SF9 insect cells (baculovirus)
T1 sequence (Q9Y253 1-713): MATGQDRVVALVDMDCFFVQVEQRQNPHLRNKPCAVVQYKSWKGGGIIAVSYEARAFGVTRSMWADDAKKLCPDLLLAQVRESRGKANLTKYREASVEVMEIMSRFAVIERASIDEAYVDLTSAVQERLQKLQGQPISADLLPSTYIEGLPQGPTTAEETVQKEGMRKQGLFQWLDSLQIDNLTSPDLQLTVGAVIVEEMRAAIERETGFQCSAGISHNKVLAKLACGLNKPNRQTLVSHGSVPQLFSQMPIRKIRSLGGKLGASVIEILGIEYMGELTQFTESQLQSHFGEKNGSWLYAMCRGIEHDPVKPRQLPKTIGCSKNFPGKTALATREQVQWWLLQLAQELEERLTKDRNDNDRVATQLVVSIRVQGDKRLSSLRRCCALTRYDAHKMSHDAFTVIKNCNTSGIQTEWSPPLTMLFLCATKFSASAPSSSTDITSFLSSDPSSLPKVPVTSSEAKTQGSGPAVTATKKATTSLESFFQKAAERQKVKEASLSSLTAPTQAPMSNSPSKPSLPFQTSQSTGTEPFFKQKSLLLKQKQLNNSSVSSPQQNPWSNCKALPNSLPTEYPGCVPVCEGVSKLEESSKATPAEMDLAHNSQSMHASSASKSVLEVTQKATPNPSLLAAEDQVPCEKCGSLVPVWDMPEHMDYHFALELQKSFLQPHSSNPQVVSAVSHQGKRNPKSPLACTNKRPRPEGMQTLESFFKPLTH
Description: as §1, §2

## CC1=CC[C@H]2C(C)(C)CCC[C@]2(C)[C@H]1CCCCCCCCCCCCCCCCC(=O)O (relative stereo) [compound 11, (1S*,4aS*,8aS*)-17-(1,4,4a,5,6,7,8,8a-octahydro-2,5,5,8a-tetramethylnaphthalen-1-yl)heptadecanoic acid]
Mammalian pols
  IC50: 3.22 to 8.76 µM
HL-60 cells
  Growth inhibitory effect on HL-60 cells, rank among compounds tested: strongest growth inhibitory effect
[1]
  IC50: > 200 µM
Calf DNA polymerase α; 10 and 100 μM of compound (Figure 2A)
  Inhibitory effect on pol α compared with KA-A: strongest inhibitory effect
Calf DNA polymerase α; poly(dA)/oligo(dT)12-18 and dTTP, 0.05 units enzyme, read-out: IC50 values
  IC50: 4.21 ± 0.21 µM
[2]
  Thermal transition of Tm of dsDNA: no thermal transition of Tm was observed
Human DNA polymerase η
  IC50: 7.45 ± 0.37 µM
